Converted amounts (≈) assume the structure as drawn. The source made the active and inactive calls. No cut-off for these calls is given here.
Assays:
Salmonella typhi = assay: Antibacterial activity against Salmonella typhi assessed as inhibition of bacterial growth incubated for 24 hrs by agar well diffusion method; format: functional, Salmonella enterica subsp. enterica serovar Typhi
Klebsiella aerogenes [1] = assay: Antibacterial activity against Enterobacter aerogenes assessed as inhibition of bacterial growth incubated for 24 hrs by agar well diffusion method; format: functional
[2] = biological target: T1, Enoyl-[acyl-carrier-protein] reductase [NADH] (Mycobacterium tuberculosis) (UniProt P9WGR1); assay: Inhibition of InhA in Mycobacterium tuberculosis H37Rv assessed antitubercular activity by measuring inhibition of bacterial growth incubated for 7 days by MABA assay; details: time 7.0 day
T1 sequence (whole entry): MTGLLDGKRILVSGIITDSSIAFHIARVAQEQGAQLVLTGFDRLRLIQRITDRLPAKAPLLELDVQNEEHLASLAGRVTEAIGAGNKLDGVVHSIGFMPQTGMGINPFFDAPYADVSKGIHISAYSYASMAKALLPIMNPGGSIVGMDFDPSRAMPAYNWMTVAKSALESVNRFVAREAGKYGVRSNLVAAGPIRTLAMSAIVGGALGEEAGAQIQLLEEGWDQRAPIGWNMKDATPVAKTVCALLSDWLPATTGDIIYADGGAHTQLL

Staphylococcus aureus [3] = assay: Antibacterial activity against Staphylococcus aureus assessed as inhibition of bacterial growth incubated for overnight by CLSI based method; format: functional
Shigella boydii [4] = assay: Antibacterial activity against Shigella boydii assessed as inhibition of bacterial growth incubated for 24 hrs by agar well diffusion method; format: functional
Candida albicans [5] = assay: Antifungal activity against Candida albicans assessed as inhibition of […] growth incubated for overnight by CLSI based method; format: functional
Saccharomyces cerevisiae [6] = assay: Antifungal activity against Saccharomyces cerevisiae assessed as inhibition of fungal growth incubated for 24 hrs by agar well diffusion method; format: functional
Aspergillus niger [7] = assay: Antifungal activity against Aspergillus niger assessed as inhibition of fungal growth incubated for 24 hrs by agar well diffusion method; format: functional
Pseudomonas aeruginosa = assay: Antibacterial activity against Pseudomonas aeruginosa assessed as inhibition of bacterial growth incubated for 24 hrs by agar well diffusion method; format: functional
Bacillus subtilis = assay: Antibacterial activity against Bacillus subtilis assessed as inhibition of bacterial growth incubated for 24 hrs by agar well diffusion method; format: functional
Candida albicans [8] = assay: Antifungal activity against Candida albicans assessed as inhibition of fungal growth incubated for 24 hrs by agar well diffusion method; format: functional
Bacillus cereus = assay: Antibacterial activity against Bacillus cereus assessed as inhibition of bacterial growth incubated for 24 hrs by agar well diffusion method; format: functional
Klebsiella aerogenes [9] = assay: Antibacterial activity against Enterobacter aerogenes assessed as inhibition of bacterial growth incubated for overnight by CLSI based method; format: functional
Saccharomyces cerevisiae [10] = assay: Antifungal activity against Saccharomyces cerevisiae assessed as inhibition of […] growth incubated for overnight by CLSI based method; format: functional
Staphylococcus aureus [11] = assay: Antibacterial activity against Staphylococcus aureus assessed as inhibition of bacterial growth incubated for 24 hrs by agar well diffusion method; format: functional
Aspergillus niger [12] = assay: Antifungal activity against Aspergillus niger assessed as inhibition of […] growth incubated for overnight by CLSI based method; format: functional
Shigella boydii [13] = assay: Antibacterial activity against Shigella boydii assessed as inhibition of bacterial growth incubated for overnight by CLSI based method; format: functional
[14] = test system: Salmonella enterica subsp. enterica serovar Abony; assay: Antibacterial activity against Salmonella abony assessed as inhibition of bacterial growth incubated for 24 hrs by agar well diffusion method; format: functional
Escherichia coli = assay: Antibacterial activity against Escherichia coli assessed as inhibition of bacterial growth incubated for 24 hrs by agar well diffusion method; format: functional
[15] = Cytotoxicity against human HEK293 cells assessed as inhibition of cell growth at 25 uM incubated for 48 hrs by MTT assay; format: cell-based
[16] = Salmonella enterica subsp. enterica serovar Typhi

Brc1cccc(-n2cc(COc3ccc4c(c3)CCC4)nn2)c1
diameter of the inhibition zone (DIZ) (Salmonella typhi): 8 mm
diameter of the inhibition zone (DIZ) (Klebsiella aerogenes [1]): 16 mm
MIC [2]: > 25 µM
MIC (Staphylococcus aureus [3]): 100 mg/L (≈ 270 µM)
diameter of the inhibition zone (DIZ) (Shigella boydii [4]): 20 mm
MIC (Candida albicans [5]): 100 mg/L (≈ 270 µM)
diameter of the inhibition zone (DIZ) (Saccharomyces cerevisiae [6]): 7 mm
diameter of the inhibition zone (DIZ) (Aspergillus niger [7]): 6 mm
diameter of the inhibition zone (DIZ) (Pseudomonas aeruginosa): 14 mm
diameter of the inhibition zone (DIZ) (Bacillus subtilis): 17 mm
diameter of the inhibition zone (DIZ) (Candida albicans [8]): 14 mm
diameter of the inhibition zone (DIZ) (Bacillus cereus): 10 mm
MIC (Klebsiella aerogenes [9]): 150 mg/L (≈ 405 µM)
MIC (Saccharomyces cerevisiae [10]): 160 mg/L (≈ 432 µM)
diameter of the inhibition zone (DIZ) (Staphylococcus aureus [11]): 19 mm
MIC (Aspergillus niger [12]): 190 mg/L (≈ 513 µM)
MIC (Shigella boydii [13]): 130 mg/L (≈ 351 µM)
diameter of the inhibition zone (DIZ) [14]: 14 mm
diameter of the inhibition zone (DIZ) (Escherichia coli): 15 mm

OC(Cn1cncn1)(Cn1cncn1)c1ccc(F)cc1F [FLUCONAZOLE]
MIC (Candida albicans [5]): 25 mg/L (≈ 81.6 µM)
diameter of the inhibition zone (DIZ) (Saccharomyces cerevisiae [6]): 30 mm
diameter of the inhibition zone (DIZ) (Aspergillus niger [7]): 30 mm
diameter of the inhibition zone (DIZ) (Candida albicans [8]): 30 mm
MIC (Saccharomyces cerevisiae [10]): 12 mg/L (≈ 39.2 µM)
MIC (Aspergillus niger [12]): 8 mg/L (≈ 26.1 µM)

c1ccc(-n2cc(COc3ccc4c(c3)CCC4)nn2)cc1
diameter of the inhibition zone (DIZ) (Salmonella typhi; [16]): inactive
diameter of the inhibition zone (DIZ) (Klebsiella aerogenes [1]): inactive
MIC [2]: 25 µM (≈ 7.28 µg/mL)
diameter of the inhibition zone (DIZ) (Shigella boydii [4]): inactive
diameter of the inhibition zone (DIZ) (Saccharomyces cerevisiae [6]): 8 mm
diameter of the inhibition zone (DIZ) (Aspergillus niger [7]): inactive
diameter of the inhibition zone (DIZ) (Pseudomonas aeruginosa): inactive
diameter of the inhibition zone (DIZ) (Bacillus subtilis): inactive
diameter of the inhibition zone (DIZ) (Candida albicans [8]): 12 mm
diameter of the inhibition zone (DIZ) (Bacillus cereus): inactive
diameter of the inhibition zone (DIZ) (Staphylococcus aureus [11]): 7 mm
inhibition at 48 h, 25 µM [15]: 23.4%
diameter of the inhibition zone (DIZ) [14]: inactive
diameter of the inhibition zone (DIZ) (Escherichia coli): inactive

Cc1cccc(-n2cc(COc3ccc4c(c3)CCC4)nn2)c1
diameter of the inhibition zone (DIZ) (Salmonella typhi; [16]): inactive
diameter of the inhibition zone (DIZ) (Klebsiella aerogenes [1]): inactive
MIC [2]: 12.5 µM (≈ 3.82 µg/mL)
diameter of the inhibition zone (DIZ) (Shigella boydii [4]): inactive
diameter of the inhibition zone (DIZ) (Saccharomyces cerevisiae [6]): 13 mm
diameter of the inhibition zone (DIZ) (Aspergillus niger [7]): inactive
diameter of the inhibition zone (DIZ) (Pseudomonas aeruginosa): inactive
diameter of the inhibition zone (DIZ) (Bacillus subtilis): inactive
diameter of the inhibition zone (DIZ) (Candida albicans [8]): 10 mm
diameter of the inhibition zone (DIZ) (Bacillus cereus): inactive
diameter of the inhibition zone (DIZ) (Staphylococcus aureus [11]): 6 mm
inhibition at 48 h, 25 µM [15]: 23.4%
diameter of the inhibition zone (DIZ) [14]: inactive
diameter of the inhibition zone (DIZ) (Escherichia coli): inactive

Cc1ccc(NC(=O)Cn2cc(COc3ccc4c(c3)CCC4)nn2)cc1
diameter of the inhibition zone (DIZ) (Salmonella typhi; [16]): inactive
diameter of the inhibition zone (DIZ) (Klebsiella aerogenes [1]): inactive
MIC [2]: > 25 µM
diameter of the inhibition zone (DIZ) (Shigella boydii [4]): inactive
diameter of the inhibition zone (DIZ) (Saccharomyces cerevisiae [6]): inactive
diameter of the inhibition zone (DIZ) (Aspergillus niger [7]): inactive
diameter of the inhibition zone (DIZ) (Pseudomonas aeruginosa): inactive
diameter of the inhibition zone (DIZ) (Bacillus subtilis): inactive
diameter of the inhibition zone (DIZ) (Candida albicans [8]): 12 mm
diameter of the inhibition zone (DIZ) (Bacillus cereus): inactive
diameter of the inhibition zone (DIZ) (Staphylococcus aureus [11]): 8 mm
diameter of the inhibition zone (DIZ) [14]: inactive
diameter of the inhibition zone (DIZ) (Escherichia coli): inactive

CN(C)[C@@H]1C(O)=C(C(N)=O)C(=O)[C@@]2(O)C(O)=C3C(=O)c4c(O)cccc4[C@@](C)(O)[C@H]3C[C@@H]12 [TETRACYCLINE]
diameter of the inhibition zone (DIZ) (Salmonella typhi): 33 mm
diameter of the inhibition zone (DIZ) (Klebsiella aerogenes [1]): 33 mm
MIC (Staphylococcus aureus [3]): 20 mg/L (≈ 45 µM)
diameter of the inhibition zone (DIZ) (Shigella boydii [4]): 34 mm
diameter of the inhibition zone (DIZ) (Pseudomonas aeruginosa): 32 mm
diameter of the inhibition zone (DIZ) (Bacillus subtilis): 32 mm
diameter of the inhibition zone (DIZ) (Bacillus cereus): 33 mm
MIC (Klebsiella aerogenes [9]): 30 mg/L (≈ 67.5 µM)
diameter of the inhibition zone (DIZ) (Staphylococcus aureus [11]): 29 mm
MIC (Shigella boydii [13]): 20 mg/L (≈ 45 µM)
diameter of the inhibition zone (DIZ) [14]: 32 mm
diameter of the inhibition zone (DIZ) (Escherichia coli): 29 mm

Brc1ccc(-n2cc(COc3ccc4c(c3)CCC4)nn2)cc1
diameter of the inhibition zone (DIZ) (Salmonella typhi; [16]): inactive
diameter of the inhibition zone (DIZ) (Klebsiella aerogenes [1]): inactive
MIC [2]: > 25 µM
diameter of the inhibition zone (DIZ) (Shigella boydii [4]): inactive
diameter of the inhibition zone (DIZ) (Saccharomyces cerevisiae [6]): 7 mm
diameter of the inhibition zone (DIZ) (Aspergillus niger [7]): inactive
diameter of the inhibition zone (DIZ) (Pseudomonas aeruginosa): inactive
diameter of the inhibition zone (DIZ) (Bacillus subtilis): inactive
diameter of the inhibition zone (DIZ) (Candida albicans [8]): 11 mm
diameter of the inhibition zone (DIZ) (Bacillus cereus): inactive
diameter of the inhibition zone (DIZ) (Staphylococcus aureus [11]): inactive
diameter of the inhibition zone (DIZ) [14]: inactive
diameter of the inhibition zone (DIZ) (Escherichia coli): 8 mm

From ChEMBL document CHEMBL4699525, “Design and synthesis of new indanol-1,2,3-triazole derivatives as potent antitubercular and antimicrobial agents” (Bioorg Med Chem Lett, 2020)
